Assay results reported in patent US8188049B2, “Peptides having activities of epidermal growth factor and its uses” (Caregen Co., Ltd., priority 2006, dated 2012).

Legend:
NIH-3T3 cell = test: Stability of tridecapeptide: residual activity by MTT assay after storage at 37° C; format: physicochemical; conditions: 50 mM Tris-HCl pH 8.0, 37° C, days 0-100; peptide 10 μg/ml, EGF 1 μg/ml; MTT on NIH-3T3
Experimental: To evaluate stability of the synthesized and purified tridecapeptide of Example 1, the tridecapeptide was dissolved in 50 mM Tris-HCl (pH 8.0) to a concentration of 10 μg/ml. The recombinant EGF protein (Sigma-Aldrich) produced in E. coli was prepared as a control in the same buffer to a concentration of 1 μg/ml. The prepared solutions were introduced into glass vials and kept to stand at 37° C. Afterwards, the solutions were taken on days 0, 1, 10, 25, 50, 75 and 100 and subjected to MTT assay (Scudiero, D. A., et al. Cancer Res. 48:4827-4833 (1988)) using NIH-3T3 cell (Korean Cell Line Bank) to determine residual activities of the peptide and EGF (FIG. 2). The results were given as relative values to the activity (100%) of sample taken on day 0.

HaCaT keratinocytes = test: SRB colorimetric assay, growth of HaCaT keratinocytes; format: cell-based, human; conditions: 72 hr; for cell growth / proliferation of keratinocytes (absorbance at 590 nm): 10 ng/ml or 1,000 ng/ml, serum-free
Experimental: (§1) To analyze effects of peptides of this invention on proliferation of keratinocytes, SRB (Sulforhodamine B) colorimetric assay was carried out using HaCaT kerationcyte according to Rizzino et al method (Rizzino, et al. Cancer Res., 48:4266 (1988)). HaCaT ketatinocytes (The Korean Cell Line Bank) were cultured in 250 ml-flasks containing EMEM (Eagle's minimal essential media, Gibco, U.S.A.) supplemented with […] (fetal bovine serum). HaCaT ketatinocytes cultured were treated with 0.25% trypsin solution to detach cells from the bottom of culture flasks and centrifuged to collect cell pellets. Cells were resuspended in EMEM not containing FBS, its aliquot (4×10^3) cells was added to each well of 96-well plates and cultured under 7% CO2 for 24 hr at 37° C. After 24-hr culture, the medium was changed with a fresh medium not containing serum and cells were incubated with human EGF or the tri-decapeptide (10 ng/ml or 1,000 ng/ml) dissolved in 10% DMSO for 72 hr under the same conditions as described above. After removing supernatants, cells were washed once using PBS (phosphate buffered saline) and incubated with SRB solution (Sigma-Aldrich). Cells were washed with PBS and observed under a microscope to examine cell viability (FIG. 3). In addition, absorbance at 590 nm was measured to analyze cell proliferation (FIG. 4). Cell adherency to culture dishes was tested using non-treated culture dishes and peptide-pretreated culture dishes. Human keratinocytes were plated on the culture dishes and then incubated for 24 hr, followed by observation under a microscope.

Human keratinocytes = test: Cell adherency to peptide-pretreated culture dishes; format: cell-based; conditions: 24 hr
Experimental: as §1, with “Cell adherency to culture dishes was tested using non-treated culture dishes and peptide-pretreated culture dishes. Human keratinocytes were plated on the culture dishes and then incubated for 24 hr, followed by observation under a microscope.” left out

NIH3T3 cells = test: Cell motility after scratching the culture dish; format: cell-based; conditions: NIH3T3, 1 μg/ml, 1 and 3 day treatment
Experimental: We analyzed cell motility to further verify cell proliferation potency. NIH3T3 cells were plated on 60 mm-culture dishes and cultured to a suitable fluency. The bottom surface of culture dishes was scratched using pipette and incubated with 1 μg/ml of the present peptides, followed by observing cell motility. In FIG. 6, panels A and B show cell samples non-treated with peptides and panels C and D, cell samples treated with 1 μg/ml peptides. Images of A and C were taken after 1 day-treatment, and those of B and D after 3 day-treatment.

EGF = test: Autocrine effect: EGF level in culture by ELISA; format: cell-based, human; conditions: HaCat, 1 μg/ml, 6 days
Experimental: For examining autocrine effects, HaCat cell lines were incubated for 6 days with the tridecapeptides of this invention (1 μg/ml) and then the level of EGF in culture was measured using the ELISA kit (R&D, USA).

hyaluronic acid = test: Hyaluronic acid level by ELISA; format: cell-based, human; conditions: HaCat, 5 μmole, 72 hr
Experimental: Furthermore, HaCat cell lines were incubated for 72 hr with 5 μmole of the present tridecapeptides and then the level of hyaluronic acid, a marker indicating the improvement in skin wrinkle, was measured using Hyaluronic acid ELISA kit (Echelon Biosciences Inc, USA) (FIG. 8).

[1] = listed as peptide of this invention

recombinant EGF protein: recombinant EGF protein (Sigma-Aldrich) produced in E. coli, used as control [reference compound]
residual activity relative to day 0 (100%) (NIH-3T3 cell): sharply decreased

NH2-Cys-Met-Tyr-Ile-Glu-Gly-Gly-Gly-Gly-Arg-Gly-Asp-Gly-OH (H-CMYIEGGGGRGDG-OH) [tridecapeptide]
residual activity relative to day 0 (100%) (NIH-3T3 cell): not to be decreased | cell growth / proliferation of keratinocytes (absorbance at 590 nm) (HaCaT keratinocytes): promotes the growth of human keratinocytes in a dose-dependent manner | cell growth / proliferation of keratinocytes (absorbance at 590 nm) (HaCaT keratinocytes; [1]): significantly high potency | cell viability (microscope) (HaCaT keratinocytes; SRB staining): significantly high potency | number of cells adhered to culture dishes vs non-treated culture dishes (Human keratinocytes; [1]): significantly high potency | number of cells adhered to culture dishes vs non-treated culture dishes (Human keratinocytes; listed as peptides of this invention): about three-fold greater | cell motility (NIH3T3 cells): promote cell motility | level of EGF in culture (autocrine effect) (EGF): significantly high autocrine effects on EGF | level of EGF in culture (autocrine effect) (EGF; listed as present peptide): considerable increase | level of hyaluronic acid (hyaluronic acid): significantly increased
